Among the test systems are NCI-H226 lung; SK-MEL-2 melanoma; SR leukemia; OVCAR-4 ovarian; IGROV1 ovarian; U251 CNS; OVCAR-8 ovarian; HT29 colon; UO-31 renal; MCF7 breast.
What all share (assay): NCI tumour cell line growth inhibition, 48 h

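The compound was tested at five concentrations on cells cultured in 96-well plates, with a 48-hour exposure period. GI50: concentration for 50% inhibition of growth. TGI: total growth inhibition.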

As for `Nc1c(C(=O)Nc2ccccn2)sc2nc3c(cc12)CCCCCC3`, the GI50 was 3.15 µM in the assay with NCI-H226 lung; 0.965 µM in the assay with SK-MEL-2 melanoma; 0.197 µM in the assay on SR leukemia; 4.21 µM in the assay on OVCAR-4 ovarian; 1.95 µM in the assay on IGROV1 ovarian; 0.97 µM in the assay on U251 CNS. The GI50 was 2.21 µM in the assay with OVCAR-8 ovarian, 0.36 µM in the assay with HT29 colon, 4.56 µM with UO-31 renal and 0.179 µM in the assay with MCF7 breast. Moreover, the TGI with NCI-H226 lung was 18.5 µM; in the assay on SK-MEL-2 melanoma, 9.83 µM; in the assay with SR leukemia, over 50 µM; in the assay on OVCAR-4 ovarian, 15.8 µM; in the assay with IGROV1 ovarian it was 13.9 µM; in the assay with U251 CNS, 9.07 µM. The TGI in the assay on OVCAR-8 ovarian was found to be 15.8 µM; in the assay with HT29 colon, 5.67 µM; in the assay on UO-31 renal, 22.2 µM; with MCF7 breast it was 10.2 µM.
In the case of `Nc1n[nH]c2ccc([C@@H]3Nc4c(F)cc5[nH]ncc5c4[C@H]4C5CCC(C5)[C@@H]34)cc12` (some centres undefined), the GI50 in the assay on NCI-H226 lung is 0.629 µM; in the assay on SK-MEL-2 melanoma, 0.598 µM; in the assay with SR leukemia, 0.0779 µM; with OVCAR-4 ovarian, 5.81 µM; with IGROV1 ovarian, 0.391 µM; in the assay with U251 CNS, 0.376 µM. In addition, the GI50 in the assay on OVCAR-8 ovarian was 0.468 µM; in the assay on HT29 colon, 0.317 µM; with UO-31 renal, 0.587 µM; in the assay with MCF7 breast, 0.0702 µM. In addition, the TGI with NCI-H226 lung is over 19.9 µM; in the assay on SK-MEL-2 melanoma, over 44.3 µM; in the assay on SR leukemia, 15.1 µM; with OVCAR-4 ovarian, over 85.8 µM; in the assay on IGROV1 ovarian, over 46.2 µM; in the assay on U251 CNS, 17.3 µM. Also, the TGI was over 100 µM with OVCAR-8 ovarian, over 34.4 µM in the assay with HT29 colon, over 52.6 µM with UO-31 renal and over 43.4 µM in the assay on MCF7 breast.
As for `CC/C(=C(/c1ccc(/C=C/C(=O)O)cc1)c1ccc2[nH]ncc2c1)c1ccc(F)cc1Cl`, the GI50 in the assay on NCI-H226 lung was 19.3 µM; in the assay with SK-MEL-2 melanoma, 10.2 µM; with SR leukemia, 4.03 µM; in the assay with OVCAR-4 ovarian, 12 µM; in the assay on IGROV1 ovarian it was 15.8 µM; in the assay with U251 CNS, 9.44 µM. For the same compound, the GI50 with OVCAR-8 ovarian was 14.2 µM; in the assay with HT29 colon, 13.3 µM; with UO-31 renal it was 11.2 µM. Moreover, the TGI in the assay on NCI-H226 lung was 47.6 µM; in the assay with SK-MEL-2 melanoma it was 27 µM; in the assay on SR leukemia, 29.4 µM; in the assay with OVCAR-4 ovarian it was 27.9 µM; in the assay on IGROV1 ovarian it was 40 µM; with U251 CNS, 23.5 µM. Moreover, the TGI is 37.9 µM in the assay with OVCAR-8 ovarian, 32.4 µM in the assay on HT29 colon, 24.7 µM in the assay on UO-31 renal and 15.4 µM in the assay with MCF7 breast.
For `Oc1ccc(-c2[nH]c3ccccc3c2-c2nc3ccccc3o2)cc1`, the GI50 in the assay with NCI-H226 lung was 3.14 µM; with SK-MEL-2 melanoma, 3.03 µM; in the assay with SR leukemia it was 4.78 µM; in the assay with OVCAR-4 ovarian, 2.14 µM; with IGROV1 ovarian, 3.34 µM; in the assay with U251 CNS, 2.86 µM. Moreover, the GI50 with OVCAR-8 ovarian was 4.57 µM; in the assay on HT29 colon it was 3.65 µM; in the assay with UO-31 renal, 0.893 µM; in the assay with MCF7 breast it was 2.83 µM. Also, the TGI in the assay on NCI-H226 lung was determined as 15.3 µM; in the assay with SK-MEL-2 melanoma, 12.3 µM; in the assay with SR leukemia, 25.7 µM; in the assay on OVCAR-4 ovarian, 14.7 µM; in the assay with IGROV1 ovarian, 16.3 µM; with U251 CNS it was 11.6 µM. Also, the TGI in the assay on OVCAR-8 ovarian is 20.9 µM; in the assay with HT29 colon, 11.5 µM; with UO-31 renal, 13.9 µM; in the assay with MCF7 breast, 10.5 µM.
`O=C(Nc1nc2c(s1)CCc1c-2c(Br)n(Cc2ccccc2)c1Br)c1ccccc1`: the GI50 is 1.87 µM in the assay with NCI-H226 lung; 3.47 µM with SK-MEL-2 melanoma; 12.1 µM with SR leukemia; 1.8 µM with OVCAR-4 ovarian; 2.68 µM in the assay with IGROV1 ovarian; 3.42 µM in the assay with U251 CNS. Moreover, the GI50 in the assay with OVCAR-8 ovarian is 3.91 µM; with HT29 colon it was 4.71 µM; in the assay with UO-31 renal, 3.19 µM; in the assay on MCF7 breast it was 5.38 µM. Also, the TGI in the assay on NCI-H226 lung was 9.16 µM; in the assay with SK-MEL-2 melanoma, 19.6 µM; in the assay on SR leukemia, over 100 µM; in the assay with OVCAR-4 ovarian, 7.54 µM; with IGROV1 ovarian, 33.4 µM; in the assay with U251 CNS, 11.3 µM. Besides, the TGI in the assay on OVCAR-8 ovarian was over 100 µM; in the assay on HT29 colon it was over 100 µM; in the assay on UO-31 renal, 39.9 µM; in the assay on MCF7 breast, over 100 µM.
As for `CCOC(=O)c1cc2cc(OCc3ccccc3)ccc2[nH]1`, the GI50 in the assay with NCI-H226 lung, in the assay on SK-MEL-2 melanoma, with SR leukemia, with OVCAR-4 ovarian, with IGROV1 ovarian and in the assay with U251 CNS was over 100 µM throughout. Further, the GI50 with OVCAR-8 ovarian, in the assay on HT29 colon, in the assay on UO-31 renal and with MCF7 breast was over 100 µM throughout. The TGI with NCI-H226 lung, with SK-MEL-2 melanoma, in the assay with SR leukemia, in the assay with OVCAR-4 ovarian, with IGROV1 ovarian and with U251 CNS was over 100 µM in each case. Moreover, the TGI in the assay with OVCAR-8 ovarian, in the assay with HT29 colon, in the assay with UO-31 renal and in the assay on MCF7 breast was over 100 µM throughout.
For `Cc1nn2c(-c3nc4cc(Cl)c(Cl)cc4[nH]3)c(-c3ccc(F)cc3)nc2s1`, the GI50 in the assay with NCI-H226 lung is 4.01 µM; in the assay with SK-MEL-2 melanoma, 14.2 µM; in the assay with SR leukemia it was 42.9 µM; with OVCAR-4 ovarian, 0.257 µM; in the assay on IGROV1 ovarian, 5.42 µM; with U251 CNS it was 2.56 µM. The GI50 with OVCAR-8 ovarian was 2.11 µM; with HT29 colon, 1.91 µM; in the assay on UO-31 renal it was 1.64 µM; in the assay on MCF7 breast, 13.6 µM. The TGI is 31.1 µM with NCI-H226 lung; 94.5 µM in the assay on SK-MEL-2 melanoma; over 100 µM with SR leukemia; 0.781 µM in the assay with OVCAR-4 ovarian; over 50.6 µM in the assay on IGROV1 ovarian; 10.5 µM in the assay with U251 CNS. For the same compound, the TGI in the assay with OVCAR-8 ovarian was 15 µM; in the assay on HT29 colon it was over 100 µM; with UO-31 renal, 3.93 µM; in the assay with MCF7 breast it was over 100 µM.

The values above are taken from PubChem BioAssay (NCI).
